Test results reported in article PMC8851771, “Molecular action of larvicidal flavonoids on ecdysteroidogenic glutathione S-transferase Noppera-bo in Aedes aegypti” (BMC Biology, 2022).
Like-named read-outs stand apart in the source and are kept apart here.

Assays:
[1] = target: AeNobo-WT (Aedes aegypti, UniProt A0A1S4FIB3); assay: GST activity inhibition assay with 3,4-DNADCF, wild-type AeNobo; format: biochemical
Experimental: We prepared a purified AeNobo recombinant protein (220-aa length) using an Escherichia coli protein expression system. The GST enzymatic activity was examined using the fluorogenic artificial substrate 3,4-dinitrobenzamidedichlorofluorescein (3,4-DNADCF).
The IC50 value was measured using an in vitro assay system as described previously. […] Five microliters of each diluted compound solution was mixed with 245 μL of solution A (100 mM sodium phosphate buffer at pH 6.5, 0.01% Tween 20, 2 mM GSH, and 50 ng/mL AeNobo-WT, 100 ng/mL AeNobo-E113A, and 200 ng/mL F39L). One hundred microliters of the mixture was dispensed into wells of a 96-well plate. One hundred microliters of solution B (0.2 μM 3,4-DNADCF and 100 mM sodium phosphate buffer at pH 6.5) was added to each well. In summary, the final reaction system comprised 100 mM sodium phosphate buffer (pH 6.5), 1 mM GSH, 0.005% Tween 20, 0.1 μM 3,4-DNACDF, and 25 ng/mL AeNobo, 50 ng/mL AeNobo-E113A, or 100 ng/mL AeNobo-F39L protein. The fluorescence intensity derived from 4-GS-3-NADCF, a product of this reaction, was measured for 3 min. IC50 values were estimated as described previously. The enzymatic assays under each condition were performed at least twice independently.
To identify inhibitors of AeNobo enzymatic activity, a high-throughput screening was performed as described in a previous study. Briefly, a core library of 9600 compounds obtained from the Drug Discovery Initiative, The University of Tokyo, was utilized for screening. In this screen, the enzymatic activity of AeNobo was detected using 3,4-DNADCF [29]. […] Then, 1 μL of solution B (4 μM 3,4-DNADCF, 100 mM sodium phosphate at pH 6.5, and 0.005% Tween 20) was added into each well. In summary, the reaction system comprised 5.6 ng/mL AeNobo protein, 2 μM 3,4-DNADCF, 1 mM GSH, 0.005% Tween 20, and 100 mM sodium phosphate at pH 6.5, together with each compound at 10 μM. The plate was incubated for 30 min at 25–27 °C and 2 μL of 10 mM N-ethylmaleimide was added into each well to stop the reaction. […] For the second screen, we assayed the IC50 values of the compounds against the enzymatic activity of AeNobo.

[2] = target: AeNobo-E113A (Aedes aegypti, UniProt A0A1S4FIB3, E164K); assay: GST activity inhibition assay with 3,4-DNADCF, AeNobo-E113A; format: biochemical
Text: The importance of the Glu-113–flavonoid hydrogen bond for flavonoid binding was biochemically examined with a recombinant mutated AeNobo protein carrying an E113A aa substitution (AeNobo-E113A).
(§1) pCold III plasmids expressing the AeNobo-E113A and AeNobo-F39L were constructed using KOD-Plus-Mutagenesis Kit (Toyobo). The following primers were used: E113A-F (5′-[…]-3′) and E113A-R (5′-[…]-3′) for AeNobo-E113A and F39L-F (5′-[…]-3′) and F39L-R (5′-[…]-3′) for AeNobo-F39L. We conducted inverse PCR using KOD-plus polymerase, pColdIII/AeNobo-WT plasmid, and the primer pair described above under the following conditions: pre-denaturation at 94 °C for 2 min, denaturation at 98 °C for 10 s, and extension at 68 °C for 6 min for 6 cycles. The PCR products were treated with DpnI at 37 °C for 1 h, followed by self-ligation using T4 polynucleotide kinase and Ligation High. After the transformation of DH5α bacteria using the ligation products, we extracted plasmid DNA from the colonies and verified their sequences to confirm whether the appropriate point mutations were introduced.
The IC50 value was measured using an in vitro assay system as described previously. A dilution series of compounds, ranging from 2.5 mM to 0.127 μM for DMG and from 2.5 mM to 4.9 μM for other compounds, was prepared by 2-fold serial dilution in DMSO. Five microliters of each diluted compound solution was mixed with 245 μL of solution A (100 mM sodium phosphate buffer at pH 6.5, 0.01% Tween 20, 2 mM GSH, and 50 ng/mL AeNobo-WT, 100 ng/mL AeNobo-E113A, and 200 ng/mL F39L). One hundred microliters of the mixture was dispensed into wells of a 96-well plate. One hundred microliters of solution B (0.2 μM 3,4-DNADCF and 100 mM sodium phosphate buffer at pH 6.5) was added to each well. In summary, the final reaction system comprised 100 mM sodium phosphate buffer (pH 6.5), 1 mM GSH, 0.005% Tween 20, 0.1 μM 3,4-DNACDF, and 25 ng/mL AeNobo, 50 ng/mL AeNobo-E113A, or 100 ng/mL AeNobo-F39L protein. The fluorescence intensity derived from 4-GS-3-NADCF, a product of this reaction, was measured for 3 min. IC50 values were estimated as described previously. The enzymatic assays under each condition were performed at least twice independently.

[3] = system: Ae. aegypti 1st instar larvae; details: cited from earlier work
[4] = target: AeNobo-F39L (Aedes aegypti, UniProt A0A1S4FIB3, F90L); assay: GST activity inhibition assay with 3,4-DNADCF, AeNobo-F39L; format: biochemical
Experimental: as §1
The IC50 value was measured using an in vitro assay system as described previously. A dilution series of compounds, ranging from 2.5 mM to 0.127 μM for DMG and from 2.5 mM to 4.9 μM for other compounds, was prepared by 2-fold serial dilution in DMSO. […] The fluorescence intensity derived from 4-GS-3-NADCF, a product of this reaction, was measured for 3 min. […]

[5] = target: Aedes aegypti Noppera-bo (AeNobo), wild type, 220-aa protein (Aedes aegypti); assay: SEC; gel filtration of purified AeNobo on HiLoad Superdex200 26/60; 150 mM NaCl, 25 mM Tris-HCl pH 8.0, 5 mM DTT; 1 mL/min; compared with marker proteins
[6] = Table S2, estrogenic compounds against AeNobo, read-out: IC50 (μM) (mean ± s.d.)
[7] = Table 1, GSH conjugation of 3,4-DNADCF, read-out: IC50 to AeNobo-WT (μM) (mean ± s.d.)
[8] = read-out: IC50 (μM) (mean ± s.d.)
[9] = Table S5, luteolin derivatives against AeNobo, read-out: IC50 (μM) (mean ± s.d.)

AeNobo-E113A, sequence (A0A1S4FIB3 entry or part of it E164K): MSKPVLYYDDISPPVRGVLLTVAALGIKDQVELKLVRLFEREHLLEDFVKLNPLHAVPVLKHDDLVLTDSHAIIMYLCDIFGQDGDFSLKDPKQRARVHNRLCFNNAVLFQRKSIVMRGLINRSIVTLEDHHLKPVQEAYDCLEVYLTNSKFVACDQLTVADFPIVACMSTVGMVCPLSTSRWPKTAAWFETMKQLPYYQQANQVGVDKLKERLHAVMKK
AeNobo-WT, sequence (A0A1S4FIB3 entry or part of it): as the sequence (A0A1S4FIB3 entry or part of it E164K) above, with K113E counted along it
AeNobo-F39L, sequence (A0A1S4FIB3 entry or part of it F90L): as the sequence (A0A1S4FIB3 entry or part of it E164K) above, with F39L, K113E counted along it

## ClC(Cl)=C(c1ccc(Cl)cc1)c1ccc(Cl)cc1 [1,1-Dichloro-2,2-bis(4-chlorophenyl)ethene]
[1]
  IC50: > 25 µM

## CCCCOC(=O)c1ccccc1C(=O)OCc1ccccc1 [1-benzyl 2-butyl benzene-1,2-dicarboxylate]
[1]; [6]
  IC50: > 25 µM

## Cn1c(N)nc2ncc(-c3ccccc3)cc21 [2-Amino-1-methyl-6-phenylimidazo[4,5-b]pyridine]
[1]
  IC50: > 25 µM

## O=C1CC(c2ccccc2O)Oc2ccccc21 (stereo not shown) [2′-Hydroxyflavanone]
[1]; [7]
  IC50: 4.76 ± 0.37 µM
[2]
  IC50: > 25 µM

## O=c1c(-c2ccc(O)cc2)coc2ccccc12 [3-(4-Hydroxyphenyl)-4H-chromen-4-one]
[1]; 3,4-DNADCF
  Inhibition of enzymatic activity of AeNobo (in words): did not inhibit
[1]; [8]
  IC50: > 25 µM

## CC(C)(C)CC(C)(C)c1ccc(O)cc1 [4-(2,4,4-trimethylpentan-2-yl)phenol]
[1]; [6]
  IC50: > 25 µM

## Oc1ccc(C(c2ccc(O)cc2)C(Cl)(Cl)Cl)cc1 [4-[2,2,2-trichloro-1-(4-hydroxyphenyl)ethyl]phenol]
[1]
  IC50: > 25 µM

## CC1=CC[C@@H]2C[C@H]1C(c1ccc(O)cc1)OC2(C)C (stereo partly drawn) [4-[(1R,5R)-4,4,8-trimethyl-3-oxabicyclo[3.3.1]non-7-en-2-yl]phenol]
[1]; [6]
  IC50: > 25 µM

## CC1=CC(C)[C@@]2(CO)COC(c3ccc(O)cc3)[C@@H]1C2C (stereo partly drawn) [4-[(1R,5R)-5-(hydroxymethyl)-6,8,9-trimethyl-3-oxabicyclo[3.3.1]non-7-en-2-yl]phenol]
[1]; [6]
  IC50: > 25 µM

## O=c1cc(-c2ccc(O)c(O)c2)oc2cccc(O)c12 [5,3’,4’-Trihydroxyflavone, 5,3′,4′-trihydroxyflavone]
[1]
  IC50: 1.64 ± 0.1 µM
[1]; 3,4-DNADCF
  Inhibition of enzymatic activity of AeNobo (in words): retained inhibitory activity

## O=c1cc(-c2ccc(O)c(O)c2)oc2cc(O)ccc12 [7,3’,4’-Trihydroxyflavone, 7,3′,4′-trihydroxyflavone]
[1]; 3,4-DNADCF
  Inhibition of enzymatic activity of AeNobo (in words): retained inhibitory activity
[1]; [8]
  IC50: 10.3 ± 0.47 µM

## O=c1c(-c2ccccc2)coc2cc(O)ccc12 [7-Hydroxyisoflavone]
[1]
  IC50: 5.61 ± 0.3 µM
[1]; 3,4-DNADCF
  Inhibition of enzymatic activity of AeNobo (in words): retained inhibitory activity

## C[C@]12CC[C@@H]3c4ccc(O)cc4CC[C@H]3[C@@H]1C/C(=C\c1ccccc1)C2=O [16-benzylidene estrone]
[1]; [6]
  IC50: > 25 µM

## Cc1cc(-c2ccc3c(c2)CC[C@]3(C)O)cc(C)c1O [(S)-5-(4-hydroxy-3,5-dimethylphenyl)-1-methyl-2,3-dihydro-1H-inden-1-ol]
[1]; [6]
  IC50: > 25 µM

## O=c1cc(-c2ccc(O)cc2)oc2cc(O)cc(O)c12 [Apigenin]
[1]; [9]
  IC50: > 25 µM
[1]; text and figures, 3,4-DNADCF, read-out: IC50 against AeNobo (WT)
  IC50: > 25 µM

## COc1ccc(-c2coc3cc(O)cc(O)c3c2=O)cc1 [Biochanin A]
[1]; [7]
  IC50: 1.84 ± 0.06 µM
[2]; Table 1, GSH conjugation of 3,4-DNADCF, read-out: IC50 to AeNobo-E113A (μM) (mean ± s.d.)
  IC50: > 25 µM

## CC(C)(c1ccc(O)cc1)c1ccc(O)cc1 [Biosphenol A, 4,4'-propane-2,2-diyldiphenol]
[1]
  IC50: > 25 µM

## O=c1cc(-c2ccccc2)oc2cc(O)cc(O)c12 [Chrysin]
[1]; 3,4-DNADCF
  Inhibition of enzymatic activity of AeNobo (in words): did not exhibit any inhibitory activity
[1]; [9]
  IC50: > 25 µM

## Oc1cc(O)c2cc(O)c(-c3ccc(O)c(O)c3)[o+]c2c1 [Cyanidin chloride]
[1]; [7]
  IC50: 2.15 ± 0.24 µM
[2]
  IC50: > 25 µM

## O=c1c(-c2ccc(O)cc2)coc2cc(O)ccc12 [Daidzein]
[1]
  IC50: 3.87 ± 0.52 µM
[2]
  IC50: > 25 µM
[3]
  Larvicidal activity against Ae. aegypti: exhibit larvicidal activity
  Larvicidal activity toward Ae. aegypti: known to exhibit larvicidal activity

## O=c1c(O)c(-c2ccc(O)c(O)c2)oc2cc(O)ccc12 [Fisetin]
[1]; [7]
  IC50: 1.69 ± 0.04 µM
[2]
  IC50: > 25 µM

## O=c1c(-c2ccc(O)cc2)coc2cc(O)cc(O)c12 [Genistein]
[1]; [8]
  IC50: 1.86 ± 0.41 µM
[3]
  Larvicidal activity against Ae. aegypti: exhibit larvicidal activity

## O=c1c(O)c(-c2ccc(O)cc2)oc2cc(O)cc(O)c12 [Kaempferol]
[1]; [7]
  IC50: 4.91 ± 1.69 µM
[2]
  IC50: > 25 µM

## O=c1cc(-c2ccc(O)c(O)c2)oc2cc(O)cc(O)c12 [Luteolin]
[2]
  IC50: 35.8 ± 5.73 µM
[4]
  IC50: 1.58 µM
[3]
  Larvicidal activity toward Ae. aegypti: known to exhibit larvicidal activity

## O=c1c(O)c(-c2cc(O)c(O)c(O)c2)oc2cc(O)cc(O)c12 [Myricetin]
[1]
  IC50: 2.91 ± 0.27 µM
[2]
  IC50: > 25 µM

## O=C1C[C@@H](c2ccc(O)cc2)Oc2cc(O)cc(O)c21 [Naringenin]
[1]; [7]
  IC50: > 25 µM

## COc1cc(-c2[o+]c3cc(O)cc(O)c3cc2O)cc(O)c1O [Petunidin]
[1]; [7]
  IC50: 14.9 ± 2.01 µM
[2]
  IC50: > 25 µM

## O=c1c(O)c(-c2ccc(O)c(O)c2)oc2cc(O)cc(O)c12 [Quercetin]
[1]
  IC50: 0.963 ± 0.094 µM
[2]
  IC50: > 25 µM

## Oc1ccc(/C=C/c2cc(O)cc(O)c2)cc1 [Resveratrol]
[1]; [6]
  IC50: > 25 µM

## Oc1ccc([C@H]2COc3cc(O)ccc3C2)cc1 [S-equol]
[1]; [7]
  IC50: > 25 µM

## COc1ccc(-c2oc3cc(O)cc(O)c3c(=O)c2O)cc1O [Tamarixetin]
[1]; [7]
  IC50: > 25 µM

## C[C@H]1CCCC(=O)CCC/C=C/c2cc(O)cc(O)c2C(=O)O1 [Zearalenone]
[1]
  IC50: > 25 µM

## O=C(c1ccc(O)cc1O)c1ccc(O)cc1O [bis(2,4-dihydroxyphenyl)methanone]
[1]; [6]
  IC50: > 25 µM

## CCCCOC(=O)c1ccc(O)cc1 [butyl 4-hydroxybenzoate]
[1]; [6]
  IC50: > 25 µM

## CCCOC(=O)c1ccc(O)cc1 [propyl 4-hydroxybenzoate]
[1]; [6]
  IC50: > 25 µM

## C[C@H]1CCC[C@H](O)CCCCCc2cc(O)cc(O)c2C(=O)O1 [α-zearalanol]
[1]; [6]
  IC50: > 25 µM

## (+)-catechin hydrate [(+) Catechin hydrate]
[1]; [7]
  IC50: > 25 µM

## Aedes aegypti Noppera-bo (AeNobo), wild type, 220-aa protein (enzyme)
[5]
  stoichiometry N: 2
